Laboratory results reported in ChEMBL document CHEMBL4304783, “Discovery of a Novel Selective Dual Peroxisome Proliferator-Activated Receptor α/δ Agonist for the Treatment of Primary Biliary Cirrhosis” (ACS Med Chem Lett, 2019).

Assay: Volume of distribution at steady state in Sprague-Dawley rat at 1 mg/kg, iv measured upto 24 hrs by LC-MS/MS analysis
Assay type: ADME, organism-based
Details: in vivo, read-out: Vdss

Cc1cc(Cc2cc(-c3ccc(Br)cc3)on2)cc(C)c1OC(C)(C)C(=O)O
Vd: 0.16 L/kg
